Data: patent publication US20240166652A1, “MODULATORS OF THE INTEGRATED STRESS PATHWAY” (Calico Life Sciences LLC, priority 2017, published 2024)

Test system: ATF4 luciferase reporter in HEK293T cells
Experiment: ATF4-Luc assay (ATF4 luciferase reporter, tunicamycin-treated HEK293T cells)
Type: cell-based, human
Settings: Homo sapiens, HEK-293T; HEK293T cells carrying the ATF4 luciferase reporter, 1 μg/mL tunicamycin, 7 hours

Compound | EC50 [nM]
O=C(COc1ccc(Cl)c(F)c1)NC12CCC(NC(=O)COc3ccc(Cl)c(F)c3)(CC1)C(=O)C2 [Compound 272, N,N′-(2-oxobicyclo[2.2.2]octane-1,4-diyl)bis[2-(4-chloro-3-fluorophenoxy)acetamide]] | < 10
O=C(COc1ccc(Cl)c(F)c1)NC12CCC(NC(=O)COc3ccc(F)c(Cl)c3)(C1)C2 [Compound 535, 2-(3-chloro-4-fluorophenoxy)-N-{4-[2-(4-chloro-3-fluorophenoxy)acetamido]bicyclo[2.1.1]hexan-1-yl}acetamide] | 10 to 50
O=C(COc1ccc(F)c(F)c1)NC12CCC(NC(=O)COc3ccc(F)c(OC(F)(F)F)c3)(CC1)[C@@H](O)C2 [Compound 812, 2-(3,4-difluorophenoxy)-N-[(3S)-4-{2-[4-fluoro-3-(trifluoromethoxy)phenoxy]acetamido}-3-hydroxybicyclo[2.2.2]octan-1-yl]acetamide] | < 10
O=C(COc1cncc(C(F)(F)F)c1)NC12CC(NC(=O)COc3ccc4c(c3)OC(F)(F)O4)(C1)C2 [Compound 269, 2-[(2,2-difluoro-2H-1,3-benzodioxol-5-yl)oxy]-N-[3-(2-{[5-(trifluoromethyl)pyridin-3-yl]oxy}acetamido)bicyclo[1.1.1]pentan-1-yl]acetamide] | 10 to 50
O=C(COc1ccc(Cl)c(F)c1)NC12CC(NC(=O)COc3ccn4nccc4n3)(C1)C2 [Compound 182, 2-(4-chloro-3-fluorophenoxy)-N-(3-{2-[(pyrazolo[1,5-a]pyrimidin-5-yl)oxy]acetamido}bicyclo[1.1.1]pentan-1-yl)acetamide] | > 2000
Cc1ccc(CC(=O)NC23CC(NC(=O)COc4ccc(Cl)c(F)c4)(C2)C3)cn1 [Compound 210, 2-(4-chloro-3-fluorophenoxy)-N-{3-[2-(6-methylpyridin-3-yl)acetamido]bicyclo[1.1.1]pentan-1-yl}acetamide] | > 2000
CN(CCO)C1CC2(NC(=O)COc3ccc(Cl)c(F)c3)CCC1(NC(=O)COc1ccc(Cl)c(F)c1)CC2 (centres unmarked) [Compound 711, N,N′-{2-[(2-hydroxyethyl)(methyl)amino]bicyclo[2.2.2]octane-1,4-diyl}bis[2-(4-chloro-3-fluorophenoxy)acetamide]] | < 10
O=C(COc1ccc(F)c(OC(F)(F)F)c1)NC12CCC(NC(=O)COc3ccc(Cl)c(F)c3)(CC1)[C@@H](O)C2 [Compound 820, 2-(4-chloro-3-fluorophenoxy)-N-[(2S)-4-{2-[4-fluoro-3-(trifluoromethoxy)phenoxy]acetamido}-2-hydroxybicyclo[2.2.2]octan-1-yl]acetamide] | < 10
O=C(/C=C/c1ccc(Cl)c(Cl)c1)NC12CC(NC(=O)/C=C/c3ccc(Cl)c(Cl)c3)(C1)C2 [Compound 367, (2E,2′E)-N,N′-(bicyclo[1.1.1]pentane-1,3-diyl)bis[3-(3,4-dichlorophenyl)prop-2-enamide]] | > 2000
O=C(COc1ccc(Cl)c(F)c1)NC12CC(N(CCO)CCCOc3ccc(Cl)c(F)c3)(C1)C2 [Compound 692, 2-(4-chloro-3-fluorophenoxy)-N-(3-{[3-(4-chloro-3-fluorophenoxy)propyl](2-hydroxyethyl)amino}bicyclo[1.1.1]pentan-1-yl)acetamide] | 250 to 500
O=C(COc1ccc(Cl)c(Cl)c1)NC12CCC(NC(=O)COc3ccc(Cl)c(Cl)c3)(CC1)[C@@H](O)C2 [Compound 538, N,N′-[(2S)-2-hydroxybicyclo[2.2.2]octane-1,4-diyl]bis[2-(3,4-dichlorophenoxy)acetamide]] | < 10
CC(C)c1cc(OCC(=O)NC23CCC(NC(=O)COc4ccc(Cl)c(F)c4)(CC2)C[C@@H]3O)cc(C(C)C)c1 [Compound 496, 2-(4-chloro-3-fluorophenoxy)-N-[(3S)-4-{2-[3,5-di(propan-2-yl)phenoxy]acetamido}-3-hydroxybicyclo[2.2.2]octan-1-yl]acetamide] | 500 to 2000
O=C(COc1ccc(Cl)c(CO)c1)NC12CCC(NC(=O)COc3ccc(Cl)c(F)c3)(CC1)[C@@H](O)C2 [Compound 598, 2-(4-chloro-3-fluorophenoxy)-N-[(2S)-4-{2-[4-chloro-3-(hydroxymethyl)phenoxy]acetamido}-2-hydroxybicyclo[2.2.2]octan-1-yl]acetamide] | < 10
O=C(COc1ccc(Cl)c(F)c1)NC12CC(NC(=O)Cc3ccncc3)(C1)C2 [Compound 459, 2-(4-chloro-3-fluorophenoxy)-N-{3-[2-(pyridin-4-yl)acetamido]bicyclo[1.1.1]pentan-1-yl}acetamide] | > 2000
Nc1ncc(OCC(=O)NC23CC(NC(=O)COc4ccc(Cl)c(F)c4)(C2)C3)cc1Cl [Compound 250, 2-[(6-amino-5-chloropyridin-3-yl)oxy]-N-{3-[2-(4-chloro-3-fluorophenoxy)acetamido]bicyclo[1.1.1]pentan-1-yl}acetamide] | 50 to 250
CS(=O)(=O)c1cc(OCC(=O)NC23CCC(NC(=O)COc4ccc(Cl)c(F)c4)(CC2)[C@@H](O)C3)ccc1F [Compound 826, 2-(4-chloro-3-fluorophenoxy)-N-[(2S)-4-{2-[4-fluoro-3-(methanesulfonyl)phenoxy]acetamido}-2-hydroxybicyclo[2.2.2]octan-1-yl]acetamide] | 50 to 250

Compound | EC50 [nM]
CC(C)(Oc1ccc(Cl)cc1)C(=O)NC12CCC(NC(=O)COc3ccc(Cl)c(F)c3)(CC1)C[C@@H]2O [Compound 453, N-{(2S)-4-[2-(4-chloro-3-fluorophenoxy)acetamido]-2-hydroxybicyclo[2.2.2]octan-1-yl}-2-(4-chlorophenoxy)-2-methylpropanamide] | 10 to 50
O=C(/C=C/c1cccnc1)NC12CC(NC(=O)COc3ccc(Cl)c(F)c3)(C1)C2 [Compound 352, (2E)-N-{3-[2-(4-chloro-3-fluorophenoxy)acetamido]bicyclo[1.1.1]pentan-1-yl}-3-(pyridin-3-yl)prop-2-enamide] | 500 to 2000
O=C(/C=C/c1ccc(Cl)cc1)NC12CC(NC(=O)COc3ccc(Cl)c(F)c3)(C1)C2 [Compound 294, (2E)-N-{3-[2-(4-chloro-3-fluorophenoxy)acetamido]bicyclo[1.1.1]pentan-1-yl}-3-(4-chlorophenyl)prop-2-enamide] | 10 to 50
COC(=O)c1ncc(OCC(=O)NC23CCC(NC(=O)COc4ccc(Cl)c(F)c4)(CC2)[C@@H](O)C3)cn1 [Compound 622, methyl 5-[2-({(3S)-4-[2-(4-chloro-3-fluorophenoxy)acetamido]-3-hydroxybicyclo[2.2.2]octan-1-yl}amino)-2-oxoethoxy]pyrimidine-2-carboxylate] | 500 to 2000
Cc1ccc(OCC(=O)NC23CC(NC(=O)COc4ccc(Cl)c(F)c4)(C2)C3)c(Cl)n1 [Compound 237, 2-(4-chloro-3-fluorophenoxy)-N-(3-{2-[(2-chloro-6-methylpyridin-3-yl)oxy]acetamido}bicyclo[1.1.1]pentan-1-yl)acetamide] | 50 to 250
N#Cc1ccc(CS(=O)(=O)NC23CC(NC(=O)COc4ccc(Cl)c(F)c4)(C2)C3)cc1 [Compound 490, 2-(4-chloro-3-fluorophenoxy)-N-(3-{[(4-cyanophenyl)methanesulfonyl]amino}bicyclo[1.1.1]pentan-1-yl)acetamide] | 500 to 2000
O=C(COc1ccc(Cl)c(Cl)c1)NC12CCC(NC(=O)COc3ccc(Cl)c(Cl)c3)(CC1)C(=O)N2 [Compound 600, N,N′-(3-oxo-2-azabicyclo[2.2.2]octane-1,4-diyl)bis[2-(3,4-dichlorophenoxy)acetamide]] | < 10
O=C(COc1ccc(Cl)c(F)c1)NC12CCC(NC(=O)COc3ccc4cn[nH]c4c3)(C1)C2 [Compound 187, 2-(4-chloro-3-fluorophenoxy)-N-(4-{2-[(1H-indazol-6-yl)oxy]acetamido}bicyclo[2.1.1]hexan-1-yl)acetamide] | 50 to 250
O=C(COc1ccc(F)c(C(F)(F)F)c1)NC12CCC(NC(=O)COc3ccc(Cl)cc3)(CC1)[C@@H](O)C2 [Compound 846, 2-(4-chlorophenoxy)-N-[(2S)-4-{2-[4-fluoro-3-(trifluoromethyl)phenoxy]acetamido}-2-hydroxybicyclo[2.2.2]octan-1-yl]acetamide] | < 10
Cc1ccc(OCC(=O)NC23CC(NC(=O)COc4ccc(Cl)c(F)c4)(C2)C3)c(C)n1 [Compound 232, 2-(4-chloro-3-fluorophenoxy)-N-(3-{2-[(2,6-dimethylpyridin-3-yl)oxy]acetamido}bicyclo[1.1.1]pentan-1-yl)acetamide] | 500 to 2000
O=C(COc1ccc(F)cc1)NC12CCC(NC(=O)COc3ccc(Cl)c(Cl)c3)(CC1)[C@@H](O)C2 [Compound 581, 2-(3,4-dichlorophenoxy)-N-{(2S)-4-[2-(4-fluorophenoxy)acetamido]-2-hydroxybicyclo[2.2.2]octan-1-yl}acetamide] | < 10
O=C(COc1ccc(C(F)(F)F)nc1)NC12CC(NC(=O)COc3ccc(C(F)(F)F)nc3)(C1)C2 [Compound 400, N,N′-(bicyclo[1.1.1]pentane-1,3-diyl)bis(2-{[6-(trifluoromethyl)pyridin-3-yl]oxy}acetamide)] | 50 to 250
O=C(COc1ccc(Cl)cc1)NC12CC(NC(=O)COc3ccc(F)c(Cl)c3)(C1)C2 [Compound 546, 2-(3-chloro-4-fluorophenoxy)-N-{3-[2-(4-chlorophenoxy)acetamido]bicyclo[1.1.1]pentan-1-yl}acetamide] | < 10
CS(=O)(=O)c1ccc(OCC(=O)NC23CCC(NC(=O)COc4ccc(F)c(F)c4)(CC2)[C@@H](O)C3)cc1F [Compound 768, 2-(3,4-difluorophenoxy)-N-[(2S)-4-{2-[3-fluoro-4-(methanesulfonyl)phenoxy]acetamido}-2-hydroxybicyclo[2.2.2]octan-1-yl]acetamide] | 50 to 250
CN(C)C1CC2(NC(=O)COc3ccc(Cl)c(F)c3)CCC1(NC(=O)COc1ccc(Cl)c(F)c1)CC2 (centres unmarked) [Compound 300, N,N′-[2-(dimethylamino)bicyclo[2.2.2]octane-1,4-diyl]bis[2-(4-chloro-3-fluorophenoxy)acetamide]] | 10 to 50
O=C(COc1ccc(F)c(F)c1)NC12CC(NC(=O)COc3ccc(Cl)c(Cl)c3)(C1)C2 [Compound 584, 2-(3,4-dichlorophenoxy)-N-{3-[2-(3,4-difluorophenoxy)acetamido]bicyclo[1.1.1]pentan-1-yl}acetamide] | < 10
